# Measured values reported in patent US20180243421A1, “IMMUNOSTIMULATING AGENT” (AJINOMOTO CO., INC., priority 2015, published 2018).
# Tested on: anti-OVA-specific IgE antibody
# Details: mouse, in vivo
# Procedure: The serum sample obtained in Example 1 was measured for an anti-OVA-specific IgE antibody. The measurement method of the anti-OVA-specific IgE antibody in Example 3 and Examples 6, 9 is as follows.
# Measurement Method of anti-OVA-specific IgE Antibody
# DS mouse IgE ELISA (OVA) kit manufactured by DS Pharma Biomedical Co., Ltd. was used. The protocol is briefly shown below.
# The serum sample and a standard reagent for drawing an analytical curve are diluted with a buffer and, after stirring, left standing at room temperature for 10 min. The sample and the standard solution are added to a plate bound with an IgE capture antibody in advance and, after stirring, the mixture is left standing at room temperature for 60 min. The mixture is washed three times with wash, HRP-labeled OVA is added, and the mixture is left standing at room temperature for 30 min. The mixture is washed three times with wash, a substrate solution is added, and the mixture is left standing in dark at room temperature for 30 min. A reaction quenching liquid is added, the mixture is stirred, and the absorbance (OD Value=450 nm) is immediately measured.
# This test was performed in the same manner as in Example 3 except that N^2-hexadecanoyl-L-arginine (SZ61), N-hexadecanoylagmatine (SZ62), N^2-hexadecanoyl-L-arginine methyl ester hydrochloride (SZ63), N^2-octadecanoyl-L-glutamine tert-butyl ester (SZ64), and N^2-octadecanoyl-L-glutamine (SZ65) were used.
# This test was performed in the same manner as in Example 6 except that N-hexadecanoylagmatine (SZ62), N^2-octadecanoyl-L-glutamine tert-butyl ester (SZ64), N-docosanoyl-L-leucine methyl ester (SZ70), and N-docosanoyl-L-phenylalanine methyl ester (SZ71) were used and a positive control adjuvant Addavax™ (InvivoGen) administration group was formed.
# (§1) The allergy inducing activity test was performed in the same manner as in Example 3 except that Addavax™, N-(2-octadecyleicosanoyl)-L-leucine methyl ester (SZ86), N-hexadecanoyl-L-leucinamide (SZ90), N^2-hexadecanoyl-N^1,N^1-diethyl-L-leucinamide (SZ92), N^2-hexadecanoyl-L-arginine hexyl ester hydrochloride (SZ99) and N^2-docosanoyl-N^1,N^1-diethyl-L-glutamic acid 1-amide (SZ106) were used.
# as §1, with “N-hexadecanoyl-L-leucine” for “N^2-hexadecanoyl-L-arginine”, “(SZ97),” for “hydrochloride (SZ99) and”, “(SZ106) and N-docosanoylagmatine hydrochloride (SZ108)” for “(SZ106)”
# 8-Week-old female BALB/c mice were divided into groups (N=6), and each group was primarily immunized by dorsal-subcutaneous administration of (1) ovalbumin (OVA) (5 μg) dissolved in saline as an antigen (OVA single administration group), (2) OVA (10 μg) and aluminum hydroxide salt dissolved in saline (Alum administration group), (3) OVA 10 μg and Addavax™ (mixed with saline at 1:1) dissolved in saline (Addavax™ administration group), (4) OVA 10 μg and CpG 5 μg dissolved in saline (CpG administration group), (5) OVA 10 μg and MPL 5 μg dissolved in saline (MPL administration group), (6) OVA (5 μg) and SZ62 (0.256 μmol) dissolved or dispersed in 5% αCD-added saline (SZ62 administration group), (7) OVA (5 μg), SZ62 (0.256 μmol) and CpG 5 μg dissolved or dispersed in 5% αCD-added saline (SZ62+CpG administration group), (8) OVA 10 μg, Addavax™ (mixed with saline at 1:1) and CpG 5 μg dissolved in saline (Addavax™+CpG administration group), (9) OVA (5 μg), SZ62 (0.256 μmol) and MPL 5 μg dissolved or dispersed in 5% αCD-added saline (SZ62+MPL administration group), (10) OVA (10 μg), aluminum hydroxide salt (Alum) and MPL 5 μg dissolved in saline (Alum+MPL administration group), each per mouse. One week later, the secondary immunization was carried out by dorsal-subcutaneous administration of solutions or dispersions similar to those of the above-mentioned (1) to (10) again.
Structure (SMILES),allergy inducing activity as compared to aluminum hydroxide gel adjuvant,allergy inducing activity as compared to aluminum hydroxide gel adjuvant and Addavax,allergy inducing activity as compared to Addavax,anti-OVA-specific IgE antibody production as compared to the OVA single administration group
"CCCCCCCCCCCCCCCC(=O)NC(=N)NCCCCN [SZ62, N-hexadecanoylagmatine]",lower allergy inducing activity,lower allergy inducing activity,–,–
"CCCCCCCCCCCCCCCCCCCCCC(=O)NC(=N)NCCCCN.Cl [SZ108, N-docosanoylagmatine hydrochloride salt]",–,–,low allergy inducing activity,a significant increase in the anti-OVA-specific IgE antibody production was not observed
"CCCCCCCCCCCCCCCC(=O)N[C@@H](CC(C)C)C(=O)N(CC)CC [SZ92, N^2-hexadecanoyl-N^1,N^1-diethyl-L-leucinamide]",–,–,low allergy inducing activity,a significant increase in the anti-OVA-specific IgE antibody production was not observed
"CCCCCCCCCCCCCCCC(=O)N[C@@H](CC(C)C)C(=O)OCCCCCC [SZ97, N-hexadecanoyl-L-leucine hexyl ester]",–,–,low allergy inducing activity,a significant increase in the anti-OVA-specific IgE antibody production was not observed
"CCCCCCCCCCCCCCCC(=O)N[C@@H](CCCNC(=N)N)C(=O)OCCCCCC.Cl [SZ99, N^2-hexadecanoyl-L-arginine hexyl ester hydrochloride salt]",–,–,low allergy inducing activity,a significant increase in the anti-OVA-specific IgE antibody production was not observed
"CCCCCCCCCCCCCCCCCCC(CCCCCCCCCCCCCCCCCC)C(=O)N[C@@H](CC(C)C)C(=O)OC [SZ86, N-(2-octadecyleicosanoyl)-L-leucine methyl ester]",–,–,low allergy inducing activity,a significant increase in the anti-OVA-specific IgE antibody production was not observed
"CCCCCCCCCCCCCCCCCCCCCC(=O)N[C@@H](CCC(=O)O)C(=O)N(CC)CC [SZ106, N^2-docosanoyl-N^1,N^1-diethyl-L-glutamic acid 1-amide]",–,–,low allergy inducing activity,a significant increase in the anti-OVA-specific IgE antibody production was not observed
